Format in all cases: biochemical
In experiment [1] the target is T1, Caspase-1 (Homo sapiens, UniProt P29466).
T1 construct: mixing the compounds with the respective active caspases; purchased BioVision K151-100
T1 sequence (P29466 120-297 limits assumed): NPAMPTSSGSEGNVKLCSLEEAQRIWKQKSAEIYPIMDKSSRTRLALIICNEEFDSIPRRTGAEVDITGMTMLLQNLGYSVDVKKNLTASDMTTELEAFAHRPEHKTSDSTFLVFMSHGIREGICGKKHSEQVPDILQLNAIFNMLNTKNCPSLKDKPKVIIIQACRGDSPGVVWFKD
T1 sequence (P29466 317-404 limits assumed): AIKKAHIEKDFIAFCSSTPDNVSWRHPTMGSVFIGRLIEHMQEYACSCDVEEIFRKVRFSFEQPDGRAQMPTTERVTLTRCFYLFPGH
Briefly: Caspase-1 inhibitor screening assay (BioVision kit, YVAD-AFC). As to conditions: for inhibition at 10 µM: read-out: % Inhibition at 10 uM Casp1; for inhibition at 100 µM: read-out: % Inhibition at 100 uM Casp1. Here is the method:
(§1) The efficacy of an array of compounds as an inhibitor of the activity of Caspases 1 through 10 were assessed by using the respective Caspase Inhibitor Drug Screening Kits (Caspase-1 Catalog #: K151-100, Caspase-2 Catalog #: K152-100, Caspase-3 Catalog #: K153-100, Caspase-4 Catalog #: K154-100, Caspase-5 Catalog #: K155-100, Caspase-6 Catalog #: K156-100, Caspase-7 Catalog #: K157-100, Caspase-8 Catalog #: K158-100, Caspase-9 Catalog #: K159-100, Caspase-10 Catalog #: K160-100, BioVision) following the instructions of the manufacturer. […] Active caspases cleaved their respective synthetic substrates to release free AFC, which was then quantified by fluorometry.
(§2) Briefly, the compounds were first tested at 2 concentrations (10 uM and 100 uM final) to determine if there is a hit. […] Each condition was tested in duplicates. […] For some samples, a smaller range of concentrations was tested depending on the % Inhibition results at 10 uM and 100 uM. Results were summarized in Tables 2, 3, and 4 herein after. Table 2 represents the IC50 values (uM) of the test compounds as inhibitors of the activity of the various caspases.
(§3) (*) RFU (no inhibitor control)—RFU (compound at a specific concentration)
(§4) RFU (no inhibitor control)

In experiment [2] the target is T2, Caspase-7 (Homo sapiens, UniProt P55210).
T2 construct: mixing the compounds with the respective active caspases; purchased BioVision K157-100
T2 sequence (P55210 24-198 limits assumed): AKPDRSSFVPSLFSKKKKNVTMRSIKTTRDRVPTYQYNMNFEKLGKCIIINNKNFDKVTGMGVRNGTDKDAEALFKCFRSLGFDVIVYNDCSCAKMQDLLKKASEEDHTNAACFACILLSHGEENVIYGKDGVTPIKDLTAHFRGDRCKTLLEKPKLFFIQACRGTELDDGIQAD
T2 sequence (P55210 207-303 limits assumed): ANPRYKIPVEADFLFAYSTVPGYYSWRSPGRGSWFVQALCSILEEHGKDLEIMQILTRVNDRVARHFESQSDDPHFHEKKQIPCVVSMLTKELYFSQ
In words: Caspase-7 inhibitor screening assay (BioVision kit, DEVD-AFC). As to conditions: for inhibition at 10 µM: read-out: % Inhibition at 10 uM Casp7; for inhibition at 100 µM: read-out: % Inhibition at 100 uM Casp7; for IC50: read-out: IC50 Casp7. The protocol: as §1, §2, §3, §4

The target of experiment [3] is T3, Caspase-3 (Homo sapiens, UniProt P42574).
T3 construct: mixing the compounds with the respective active caspases; purchased BioVision K153-100
T3 sequence (P42574 29-175 limits assumed): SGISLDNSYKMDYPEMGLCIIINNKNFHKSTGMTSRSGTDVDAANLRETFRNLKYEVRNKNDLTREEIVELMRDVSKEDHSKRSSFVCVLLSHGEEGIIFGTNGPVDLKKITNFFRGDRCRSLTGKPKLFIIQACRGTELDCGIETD
T3 sequence (P42574 176-277 limits assumed): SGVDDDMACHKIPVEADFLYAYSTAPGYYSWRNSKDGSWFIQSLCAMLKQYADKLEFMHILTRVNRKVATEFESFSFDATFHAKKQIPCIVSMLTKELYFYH
Briefly: Caspase-3 inhibitor screening assay (BioVision kit, DEVD-AFC). Conditions: for inhibition at 10 µM: read-out: % Inhibition at 10 uM Casp3; for inhibition at 100 µM: read-out: % Inhibition at 100 uM Casp3; for IC50: read-out: IC50 Casp3. Here is the method:
as §1, §2, §3, §4

Experiment [4] has as its target T4, Caspase-8 (Homo sapiens, UniProt Q14790).
T4 construct: mixing the compounds with the respective active caspases; purchased BioVision K158-100
Briefly: Caspase-8 inhibitor screening assay (BioVision kit, IETD-AFC). Conditions: for inhibition at 10 µM: read-out: % Inhibition at 10 uM Casp8; for inhibition at 100 µM: read-out: % Inhibition at 100 uM Casp8; for IC50: read-out: IC50 Casp8. Here is the method: as §1, §2, §3, §4

Experiment [5] has as its target T5, Caspase-2 (Homo sapiens, UniProt P42575).
T5 construct: mixing the compounds with the respective active caspases; purchased BioVision K152-100
T5 sequence (P42575 170-325 limits assumed): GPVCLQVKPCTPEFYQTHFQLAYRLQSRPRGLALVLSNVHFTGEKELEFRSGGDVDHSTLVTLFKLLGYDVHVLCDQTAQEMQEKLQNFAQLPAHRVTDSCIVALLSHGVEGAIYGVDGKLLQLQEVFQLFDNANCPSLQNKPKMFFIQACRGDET
T5 sequence (P42575 334-452 limits assumed): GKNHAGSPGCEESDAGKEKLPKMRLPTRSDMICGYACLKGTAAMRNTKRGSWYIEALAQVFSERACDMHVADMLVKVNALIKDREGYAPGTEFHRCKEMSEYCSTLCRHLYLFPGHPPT
In words: Caspase-2 inhibitor screening assay (BioVision kit, VDVAD-AFC). Conditions: for inhibition at 10 µM: read-out: % Inhibition at 10 uM Casp2; for inhibition at 100 µM: read-out: % Inhibition at 100 uM Casp2; for IC50: read-out: IC50 Casp2. Here is the method: as §1, §2, §3, §4

Experiment [6] has as its target T6, Caspase-9 (Homo sapiens, UniProt P55211).
T6 construct: purchased BioVision K159-100
T6 sequence (P55211 1-315 limits assumed): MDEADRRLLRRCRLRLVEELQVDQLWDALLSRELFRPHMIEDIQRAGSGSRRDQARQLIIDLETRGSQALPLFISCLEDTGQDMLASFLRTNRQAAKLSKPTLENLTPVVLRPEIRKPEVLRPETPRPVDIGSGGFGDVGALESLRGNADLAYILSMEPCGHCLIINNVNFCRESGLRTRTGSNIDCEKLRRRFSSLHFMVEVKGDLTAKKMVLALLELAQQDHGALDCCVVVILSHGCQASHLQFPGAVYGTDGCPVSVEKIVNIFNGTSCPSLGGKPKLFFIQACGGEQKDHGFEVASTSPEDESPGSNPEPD
T6 sequence (P55211 331-416 limits assumed): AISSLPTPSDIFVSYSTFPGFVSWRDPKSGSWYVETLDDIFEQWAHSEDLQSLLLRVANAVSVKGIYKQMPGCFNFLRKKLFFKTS
In words: Caspase-9 inhibitor screening assay (BioVision kit, LEHD-AFC). Conditions: for inhibition at 10 µM: read-out: % Inhibition at 10 uM Casp9; for inhibition at 100 µM: read-out: % Inhibition at 100 uM Casp9; for IC50: read-out: IC50 Casp9. Here is the method: as §1, §2, §3, §4

Counter-ions that a name gives are not always drawn. Like-named read-outs stand apart in the source and are kept apart here.

What is called inhibition is how much of the control response was suppressed. Broadly, the IC50 is the midpoint of a concentration-inhibition curve. For orientation: % Inhibition means the drop in the measured response relative to a control, in per cent. A high value points to a strong effect.

T4 sequence (Q14790 217-374 limits assumed): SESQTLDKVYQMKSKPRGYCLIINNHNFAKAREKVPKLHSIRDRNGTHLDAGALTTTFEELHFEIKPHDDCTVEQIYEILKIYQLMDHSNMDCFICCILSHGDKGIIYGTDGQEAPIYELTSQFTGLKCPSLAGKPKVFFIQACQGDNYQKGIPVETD
T4 sequence (Q14790 385-479 limits assumed): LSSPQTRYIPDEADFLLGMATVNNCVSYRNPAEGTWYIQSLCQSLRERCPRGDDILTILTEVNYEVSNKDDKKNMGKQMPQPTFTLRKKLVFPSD

As for `CC(C)[C@H](NC(=O)OCc1ccccc1)C(=O)N[C@H](/C=C(\Cl)S(C)(=O)=O)CC(=O)O` [Compound 2, Cbz-Val-Asp achlorovinyl methyl vinyl sulfone], the inhibition at 10 µM in experiment [1] was 0%; in experiment [2] (10 uM) it was 3%; in experiment [3], 1%; in experiment [4] (10 uM), 2%; in experiment [5] it was 0%; in experiment [6] (10 uM) it was 16%. The inhibition at 100 µM was determined as 5% in experiment [1]; 60% in experiment [2] (100 uM); 39% in experiment [3]; 49% in experiment [4] (100 uM); 0% in experiment [5]; 66% in experiment [6] (100 uM). Further, the IC50 in experiment [1] (read-out: IC50 Casp1) is > 100 µM; in experiment [2] it was 64.4 µM; in experiment [3], > 100 µM; in experiment [4], > 100 µM; in experiment [5] it was > 100 µM; in experiment [6], 50.9 µM. In addition, the “% Inhibition at 100 uM Casp7” value in experiment [2] (100 uM) is 72%. Further, in experiment [4] (100 uM), the “% Inhibition at 100 uM Casp8” value turned out to be 33%. Further, in experiment [6] (100 uM), the “% Inhibition at 100 uM Casp9” value is recorded as 70%.
Take `CC(C)[C@H](NC(=O)OCc1ccccc1)C(=O)N[C@H](/C=C/S(C)(=O)=O)CC(=O)O` [Compound 3, Z-Val-Asp methyl vinyl sulfone]: the inhibition at 10 µM was 18% in experiment [1]; 0% in experiment [2] (10 uM); 0% in experiment [3]; 0% in experiment [4] (10 uM); 0% in experiment [5]; 0% in experiment [6] (10 uM). Also, the inhibition at 100 µM in experiment [1] worked out at 26%; in experiment [2] (100 uM) it was 9%; in experiment [3], 5%; in experiment [4] (100 uM), 23%; in experiment [5] it was 0%; in experiment [6] (100 uM) it was 17%. The IC50 in experiment [1] (read-out: IC50 Casp1), in experiment [2], in experiment [3], in experiment [4], in experiment [5] and in experiment [6] was > 100 µM each time.
Consider `CS(=O)(=O)/C(Cl)=C/[C@@H](N)CC(=O)O` [Compound 4, Asp achlorovinyl methyl vinyl sulfone, Tosyl Salt], for which the inhibition at 10 µM turned out to be 0% in experiment [1]; 0% in experiment [2]; 4% in experiment [3]; 6% in experiment [4]; 0% in experiment [5]; 0% in experiment [6]. Besides, the inhibition at 100 µM in experiment [1] stood at 0%; in experiment [2], 0%; in experiment [3], 7%; in experiment [4] it was 13%; in experiment [5], 0%; in experiment [6], 0%. The IC50 in experiment [1] (read-out: IC50 Casp1), in experiment [2], in experiment [3], in experiment [4], in experiment [5] and in experiment [6] was > 100 µM in each case.
As to `CC(C)(C)[C@H](NC(=O)c1ccc2ccccc2n1)C(=O)N1CCC[C@@H]1C(=O)N[C@H](/C=C/S(C)(=O)=O)CC(=O)O` [Compound 6, 2-Quinoline carbonyl-t-Leu-pro-Asp methyl vinyl sulfone], the inhibition at 10 µM in experiment [1] was determined as 98%; in experiment [2] (10 uM), 0%; in experiment [3], 1%; in experiment [4] (10 uM), 0%; in experiment [5], 2%; in experiment [6] (10 uM), 1%. For the same compound, the inhibition at 100 µM in experiment [1] is 100%; in experiment [2] (100 uM), 2%; in experiment [3], 1%; in experiment [4] (100 uM), 22%; in experiment [5], 10%; in experiment [6] (100 uM), 51%. Besides, the IC50 in experiment [1] (read-out: IC50 Casp1) is 0.04 µM; in experiment [1] (read-out: potency (IC50) against caspase-1) it was 0.042 µM; in experiment [2], > 100 µM; in experiment [3], > 100 µM; in experiment [4] it was > 100 µM; in experiment [5] it was > 100 µM. Moreover, the IC50 in experiment [6] was ~100 µM.
As for `CC(C)[C@H](NC(=O)c1ccc2ccccc2n1)C(=O)N[C@H](/C=C/S(C)(=O)=O)CC(=O)O` [Compound 16, 2-Quinoline carbonyl-Val-Asp methyl vinyl sulfone], the inhibition at 10 µM in experiment [1] was 0%; in experiment [2] (10 uM), 3%; in experiment [3], 5%; in experiment [4] (10 uM), 5%; in experiment [5], 1%; in experiment [6] (10 uM), 0%. For the same compound, the inhibition at 100 µM in experiment [1] was 0%; in experiment [2] (100 uM), 19%; in experiment [3] it was 30%; in experiment [4] (100 uM) it was 14%; in experiment [5] it was 3%; in experiment [6] (100 uM) it was 0%. Moreover, the IC50 in experiment [1] (read-out: IC50 Casp1), in experiment [2], in experiment [3], in experiment [4], in experiment [5] and in experiment [6] was > 100 µM in each case.

Values taken from patent US10975119B2, “Selective cysteine protease inhibitors and uses thereof” (Genesis Technologies Limited, priority 2011, dated 2021).
